Reference: US20080132505A1 (Glaxo Group Limited, priority 2004, published 2008)
Where two headings read alike, the source gives them in different places.

Target: human cannabinoid CB2 receptor (Homo sapiens, UniProt P34972)
Experiment: Cannabinoid CB2 receptor agonist activity (yeast reporter assay, FDGlu fluorescence)
Assay type: cell-based
Conditions: for Emax: read-out: efficacy value (Emax relative to HU210) at the cloned human cannabinoid CB2 receptor
Method: Determination of Cannabinoid CB2 Receptor Agonist Activity
The cannabinoid CB2 receptor agonist activity of the compounds of formula (I)-(IV) was determined in accordance with the following experimental method.
Yeast (Saccharomyces cerevisiae) cells expressing the human cannabinoid CB2 receptor were generated by integration of an expression cassette into the ura3 chromosomal locus of yeast strain MMY23. This cassette consisted of DNA sequence encoding the human CB2 receptor flanked by the yeast GPD promoter to the 5′ end of CB2 and a yeast transcriptional terminator sequence to the 3′ end of CB2. MMY23 expresses a yeast/mammalian chimeric G-protein alpha subunit in which the C-terminal 5 amino acids of Gpa1 are replaced with the C-terminal 5 amino acids of human Gαi3 (as described in Brown et al. (2000), Yeast 16:11-22). Cells were grown at 30° C. in liquid Synthetic Complete (SC) yeast media (Guthrie and Fink (1991), Methods in Enzymology, Vol. 194) lacking uracil, tryptophan, adenine and leucine to late logarithmic phase (approximately 6 OD600/ml).
Agonists were prepared as 10 mM stocks in DMSO. […] Agonist solutions in DMSO (1% final assay volume) were transferred into black, clear bottom, microtitre plates from NUNC (96- or 384-well). Cells were suspended at a density of 0.2 OD600/ml in SC media lacking histidine, uracil, tryptophan, adenine and leucine and supplemented with 10 mM 3-aminotriazole, 0.1M sodium phosphate pH 7.0, and […] fluorescein di-β-D-glucopyranoside (FDGlu). This mixture (50 ul per well for 384-well plates, 200 ul per well for 96-well plates) was added to agonist in the assay plates (Multidrop 384, Labsystems). After incubation at 30° C. for 24 hours, fluorescence resulting from degradation of FDGlu to fluorescein due to exoglucanase, an endogenous yeast enzyme produced during agonist-stimulated cell growth, was determined using a Spectrofluor microtitre plate reader (Tecan; excitation wavelength: 485 nm; emission wavelength: 535 nm). Fluorescence was plotted against compound concentration and iteratively curve fitted using a four parameter fit to generate a concentration effect value. Efficacy (Emax) was calculated from the equation
where Max[compound X] and Min[compound X] are the fitted maximum and minimum respectively from the concentration effect curve for compound X, and Max[HU210] and Min[HU210] are the fitted maximum and minimum respectively from the concentration effect curve for (6aR,10aR)-3-(1,1′-Dimethylheptyl)-6a,7,10,10a-tetrahydro-1-hydroxy-6,6-dimethyl-6H-dibenzo[b,d]pyran-9-methanol (HU210; available from Tocris). Equieffective molar ratio (EMR) values were calculated from the equation
Where EC50 [compound X] is the EC50 of compound X and EC50 [HU210] is the EC50 of HU210.

[1] = EC50 value at the cloned human cannabinoid CB2 receptor

human cannabinoid CB2 receptor, sequence (P34972 whole entry): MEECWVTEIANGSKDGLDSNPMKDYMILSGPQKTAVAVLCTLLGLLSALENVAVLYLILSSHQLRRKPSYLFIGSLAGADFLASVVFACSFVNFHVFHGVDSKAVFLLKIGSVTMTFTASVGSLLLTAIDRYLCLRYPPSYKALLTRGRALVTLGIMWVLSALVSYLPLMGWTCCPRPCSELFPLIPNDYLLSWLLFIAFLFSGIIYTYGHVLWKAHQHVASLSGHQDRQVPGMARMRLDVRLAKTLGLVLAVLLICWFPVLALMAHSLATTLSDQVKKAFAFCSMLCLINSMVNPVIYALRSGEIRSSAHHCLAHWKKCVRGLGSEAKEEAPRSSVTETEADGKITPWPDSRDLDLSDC

| EC50 (read-out: EC50 value at the cloned human cannabinoid CB2 receptor) [nM] | Structure (SMILES) | EC50 [1] [nM] | Emax [%] |
| --- | --- | --- | --- |
| – | O=C(NC1CCC1)c1cnc(Nc2ccc(Cl)c(Cl)c2)nc1C(F)(F)F [Example 30, 2-(3,4-Dichloro-phenylamino)-4-trifluoromethyl-pyrimidine-5-carboxylic acid cyclobutylamide] | 300 to 1000 | > 50 |
| – | O=C(NCC1CCOCC1)c1cnc(Nc2cccc(F)c2)nc1C(F)(F)F [Example 31, 2-(3-Fluorophenylamino)-4-trifluoromethylpyrimidine-5-carboxylic acid (tetrahydropyran-4-ylmethyl)amide] | 20 to 300 | > 50 |
| – | O=C(NCC1CCOCC1)c1cnc(Nc2cccc(Br)c2)nc1C(F)(F)F [Example 32, 2-(3-Bromophenylamino)-4-trifluoromethylpyrimidine-5-carboxylic acid (tetrahydropyran-4-ylmethyl)amide] | 20 to 300 | > 50 |
| – | O=C(NCC1CCOCC1)c1cnc(Nc2cccc(Cl)c2Cl)nc1C(F)(F)F [Example 33, 2-(2,3-Dichlorophenylamino)-4-trifluoromethylpyrimidine-5-carboxylic acid (tetrahydropyran-4-ylmethyl)amide] | 20 to 300 | > 50 |
| – | O=C(NCC1CCOCC1)c1cnc(Nc2cc(Cl)ccc2Cl)nc1C(F)(F)F [Example 35, 2-(2,5-Dichlorophenylamino)-4-trifluoromethylpyrimidine-5-carboxylic acid (tetrahydropyran-4-ylmethyl)-amide] | 20 to 300 | > 50 |
| – | O=C(NCC1CCOCC1)c1cnc(Nc2cc(Cl)cc(Cl)c2)nc1C(F)(F)F [Example 36, 2-(3,5-Dichlorophenylamino)-4-trifluoromethylpyrimidine-5-carboxylic acid (tetrahydropyran-4-ylmethyl)-amide] | 20 to 300 | > 50 |
| – | COc1cccc(Nc2ncc(C(=O)NCC3CCOCC3)c(C(F)(F)F)n2)c1 [Example 37, 2-(3-Methoxyphenylamino)-4-trifluoromethylpyrimidine-5-carboxylic acid (tetrahydropyran-4-ylmethyl)-amide] | 20 to 300 | > 50 |
| – | O=C(NCC1CCCC1)c1cnc(Nc2cccc(F)c2)nc1C(F)(F)F [Example 38, 2-(3-Fluorophenylamino)-4-trifluoromethylpyrimidine-5-carboxylic acid cyclopentylmethyl-amide] | 20 to 300 | > 50 |
| – | O=C(NCC1CCCC1)c1cnc(Nc2cccc(Br)c2)nc1C(F)(F)F [Example 39, 2-(3-Bromophenylamino)-4-trifluoromethylpyrimidine-5-carboxylic acid cyclopentylmethyl-amide] | 20 to 300 | > 50 |
| – | O=C(NCC1CCCC1)c1cnc(Nc2cccc(Cl)c2Cl)nc1C(F)(F)F [Example 40, 2-(2,3-Dichlorophenylamino)-4-trifluoromethylpyrimidine-5-carboxylic acid cyclopentylmethyl-amide] | 20 to 300 | > 50 |
| – | O=C(NCC1CCCC1)c1cnc(Nc2ccc(Cl)cc2Cl)nc1C(F)(F)F [Example 41, 2-(2,4-Dichlorophenylamino)-4-trifluoromethylpyrimidine-5-carboxylic acid cyclopentylmethyl-amide] | 20 to 300 | > 50 |
| – | O=C(NCC1CCCC1)c1cnc(Nc2cc(Cl)ccc2Cl)nc1C(F)(F)F [Example 42, 2-(2,5-Dichlorophenylamino)-4-trifluoromethylpyrimidine-5-carboxylic acid cyclopentylmethyl-amide] | 20 to 300 | > 50 |
| – | O=C(NCC1CCCC1)c1cnc(Nc2c(Cl)cccc2Cl)nc1C(F)(F)F [Example 43, 2-(2,6-Dichlorophenylamino)-4-trifluoromethylpyrimidine-5-carboxylic acid cyclopentylmethyl-amide] | 20 to 300 | > 50 |
| – | O=C(NCC1CCCC1)c1cnc(Nc2ccc(Cl)c(Cl)c2)nc1C(F)(F)F [Example 44, 2-(3,4-Dichlorophenylamino)-4-trifluoromethylpyrimidine-5-carboxylic acid cyclopentylmethyl-amide] | 20 to 300 | > 50 |
| – | O=C(NCC1CCCC1)c1cnc(Nc2cc(Cl)cc(Cl)c2)nc1C(F)(F)F [Example 45, 2-(3,5-Dichlorophenylamino)-4-trifluoromethylpyrimidine-5-carboxylic acid cyclopentylmethyl-amide] | 20 to 300 | > 50 |
| – | COc1cccc(Nc2ncc(C(=O)NCC3CCCC3)c(C(F)(F)F)n2)c1 [Example 46, 2-(3-Methoxyphenylamino)-4-trifluoromethylpyrimidine-5-carboxylic acid cyclopentylmethyl-amide] | 20 to 300 | > 50 |
| 20 to 300 | O=C(NC1CCC1)c1cnc(Nc2cccc(Br)c2)nc1C(F)(F)F [Example 47, 2-(3-Bromophenylamino)-4-trifluoromethylpyrimidine-5-carboxylic acid cyclobutylamide] | – | – |
| – | O=C(NC1CCC1)c1cnc(Nc2cccc(Cl)c2Cl)nc1C(F)(F)F [Example 48, 2-(2,3-Dichlorophenylamino)-4-trifluoromethylpyrimidine-5-carboxylic acid cyclobutylamide] | 20 to 300 | > 50 |
| – | O=C(NC1CCC1)c1cnc(Nc2ccc(Cl)cc2Cl)nc1C(F)(F)F [Example 49, 2-(2,4-Dichlorophenylamino)-4-trifluoromethylpyrimidine-5-carboxylic acid cyclobutylamide] | 20 to 300 | > 50 |
| – | O=C(NC1CCC1)c1cnc(Nc2cc(Cl)ccc2Cl)nc1C(F)(F)F [Example 50, 2-(2,5-Dichlorophenylamino)-4-trifluoromethylpyrimidine-5-carboxylic acid cyclobutylamide] | 20 to 300 | > 50 |
| – | O=C(NC1CCC1)c1cnc(Nc2c(Cl)cccc2Cl)nc1C(F)(F)F [Example 51, 2-(2,6-Dichlorophenylamino)-4-trifluoromethylpyrimidine-5-carboxylic acid N-cyclobutylamide] | 20 to 300 | > 50 |
| – | O=C(NC1CCC1)c1cnc(Nc2cc(Cl)cc(Cl)c2)nc1C(F)(F)F [Example 52, 2-(3,5-Dichlorophenylamino)-4-trifluoromethylpyrimidine-5-carboxylic acid cyclobutylamide] | 20 to 300 | > 50 |
| – | COc1cccc(Nc2ncc(C(=O)NC3CCC3)c(C(F)(F)F)n2)c1 [Example 53, 2-(3-Methoxyphenylamino)-4-trifluoromethylpyrimidine-5-carboxylic acid cyclobutylamide] | 20 to 300 | > 50 |
| – | O=C(NCC1CCC1)c1cnc(Nc2cccc(Cl)c2)nc1C(F)(F)F [Example 54, 2-(3-Chlorophenylamino)-4-trifluoromethylpyrimidine-5-carboxylic acid cyclobutylmethyl-amide] | 20 to 300 | > 50 |
| – | O=C(NCC1CCOCC1)c1cnc(Nc2c(Cl)cccc2Cl)nc1C(F)(F)F [Example 55, 2-(2,6-Dichlorophenylamino)-4-trifluoromethyl-pyrimidine-5-carboxylic acid (tetrahydro-pyran-4-ylmethyl)-amide] | 20 to 300 | > 50 |
| – | O=C(c1cnc(Nc2ccc(Cl)c(Cl)c2)nc1C(F)(F)F)N1CCOCC1 [Example 68, 1-[2-(3,4-Dichlorophenylamino)-4-trifluoromethylpyrimidin-5-yl]-1-(morpholin-4-yl)-methanone] | 20 to 300 | > 50 |
| – | O=C(NC[C@H]1CCCO1)c1cnc(Nc2cccc(F)c2)nc1C(F)(F)F [Example 73, 2-(3-Fluoro-phenylamino)-4-trifluoromethyl-pyrimidine-5-carboxylic acid [(R)-1-(tetrahydro-furan-2-yl)methyl]-amide] | – | > 50 |
| – | O=C(NC1CCCC1)c1cnc(Nc2ccc(Cl)c(Cl)c2)nc1C(F)(F)F [Example 74, 3,4-Dichlorophenylamino-4-trifluoromethyl-pyrimidine-5-carboxylic acid cyclopentylamide] | 300 to 1000 | > 50 |
| – | O=C(NC1CCCC1)c1cnc(Nc2cc(Cl)cc(Cl)c2)nc1C(F)(F)F [Example 75, 3,5-Dichlorophenylamino-4-trifluoromethyl-pyrimidine-5-carboxylic acid cyclopentylamide] | 300 to 1000 | > 50 |
